# Results as given in PubChem BioAssay (NCI).
#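 Protocol summary: plate cells (96-well), add compound at 5 concentrations, incubate 48 h, interpolate endpoints linearly. GI50 is the concentration that inhibits growth by half. TGI is the concentration that stops growth completely.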
# Test system: SK-MEL-2 melanoma
# Experiment: DTP human tumour cell line panel, 48 h
Compound,TGI [µM],GI50 [µM]
CC(C(N)=O)N(C)C(=O)c1cnc2ccccc2c1 (stereo not drawn),> 100,–
CCCCCCCCCCCCCCCCCC(=O)NCC(COP(=O)(O)O)OCC (stereo not drawn),> 100,–
CCCOC(=O)C1C2CCC(O2)C1C(=O)O (stereo not drawn),> 100,–
COc1ccc2c(c1)/C(=N/OC(C)=O)c1c-2cnc2ccccc12,64.6,26.9
CCCCCCCCCCSC(=N)N,3.27,1.68
CCOC(=O)c1c(C)n(Cc2ccccc2)c2c1cc1oc(=O)c(=O)n3cnc2c13,> 50,> 50
O=C1C=Cc2ncccc2C1=O,39.2,–
C/C(CC(=O)Nc1cccc([N+](=O)[O-])c1)=N\NC(=O)CC#N,> 100,–
[CH3][Sn]1([CH3])[O]CC(COc2cc(Cl)c(Cl)cc2Cl)[O]1 (stereo not drawn),> 100,62
O=C(/C=C/c1ccccc1)CCC1C(=O)NC(=S)NC1=O,> 100,–
CCc1cc(Cc2ccc(C)c(NC(=O)C(=O)C3C(=O)NC(=O)NC3=O)c2CC)cc(C)c1NC(=O)C(=O)C1C(=O)NC(=O)NC1=O,> 100,–
CC(=O)OC(=O)O/C=C\CCl,> 100,–
O=C(Nc1nc2ccccc2s1)c1cc(-c2ccc(F)cc2)n2nc(-c3ccccc3)cc2n1,8.97,3.15
C/C(=N/O)c1ccc(Nc2cc(-n3ccnc3)c3ccccc3n2)cc1,> 100,38.5
Cc1ccc(/C=N/NS(=O)(=O)c2ccccc2)c(C)c1,> 100,–
C#CCOCn1cnc2ncnc(N)c21,> 100,–
Cc1noc(/N=C2\C=C(Nc3onc(C)c3C)C(=O)c3ccccc32)c1C,> 100,–

# Test system: HCC-2998 colon
# Experiment: DTP human tumour cell line panel, 48 h
Compound,TGI [µM],GI50 [µM]
CC(N1CCOCC1)C(O)(c1ccccc1)c1ccccn1 (stereo not drawn),38.9,–
O=S1(=O)c2ccccc2N=C(c2ccccc2Cl)CC1c1ccc(F)cc1 (stereo not drawn),28.4,–
COc1ccc2c(c1)c1c3n2CCNN=C3CCC1,> 100,–
CC(C)N1C(C)[C@@H](c2ccccc2)O[P@]1(=O)CC1=CCCCC1 (stereo partly drawn),> 100,–
O=C(O)CCc1nc(-c2ccccc2-n2cccc2)no1,> 100,–
Cc1cc(Nc2nc(-c3ccncc3)nc3ccccc23)n[nH]1,> 100,29.6
COC(=O)C(=O)C(C(=O)C(=O)Nc1cc(Cl)c(Cl)cc1Cl)c1nc2ccc([N+](=O)[O-])cc2[nH]c1=O (stereo not drawn),> 100,–
COc1ccc(NC(=O)C2C(=O)N(c3ccc(OC)cc3)C(=O)/C2=N\NC(N)=O)cc1 (stereo not drawn),> 100,–
C/C(=N\NS(=O)(=O)c1ccc([N+](=O)[O-])cc1)c1ccc[n+]([O-])n1,22.3,–
S=c1c2ccccc2c(=S)n2n1CC=CC2,> 100,–
CC(C)(C)Sc1nnc(SC(C)(C)C)c2c(=O)[nH]nc(SC(C)(C)C)c12,23.9,–
CCCCNC1=C(C(=O)OCC)/C(=N/NC(=O)c2ccccc2O)CO1,> 100,–
N#CC(C(=O)CCCC(=O)Nc1ccc(Cl)cc1Cl)c1ccc(Cl)cc1 (stereo not drawn),> 100,–
O=CCCCC(Sc1ccccc1)Sc1ccccc1,84,–
COc1ccc(C)cc1C1CCC(=O)O1 (stereo not drawn),> 100,–
Cc1ccc2nc(NC(=O)C(=O)CC(=O)c3cccc4ccccc34)sc2c1,> 100,–
Nc1c(C(=O)Nc2cccc3ccccc23)sc2nc3c(cc12)C(=O)CCC3,–,0.3
O=C1CCC(=O)c2sccc2N1,> 100,–

Compound,TGI [µM],GI50 [µM]
O=C(c1ccc2ccccc2c1)c1c(C(F)(F)F)n([O-])c2ccc(F)cc2[n+]1=O,2.12,0.892
COc1cccc2c1cc1c3c(cc4c(c32)OCO4)C(=O)N1,> 100,7.82
CC(C(N)=O)N(C)C(=O)c1cnc2ccccc2c1 (stereo not drawn),> 100,–
CCCCCCCCCCCCCCCCCC(=O)NCC(COP(=O)(O)O)OCC (stereo not drawn),> 100,–
COc1ccc2c(c1)/C(=N/OC(C)=O)c1c-2cnc2ccccc12,> 100,39.1
CCCCCCCCCCSC(=N)N,3.31,1.72
O=C1C=Cc2ncccc2C1=O,> 61.6,–
C/C(CC(=O)Nc1cccc([N+](=O)[O-])c1)=N\NC(=O)CC#N,> 100,–
[CH3][Sn]1([CH3])[O]CC(COc2cc(Cl)c(Cl)cc2Cl)[O]1 (stereo not drawn),> 100,62.5
O=C(/C=C/c1ccccc1)CCC1C(=O)NC(=S)NC1=O,> 100,–
CCc1cc(Cc2ccc(C)c(NC(=O)C(=O)C3C(=O)NC(=O)NC3=O)c2CC)cc(C)c1NC(=O)C(=O)C1C(=O)NC(=O)NC1=O,> 100,–
CC(=O)OC(=O)O/C=C\CCl,> 100,–
O=C(Nc1nc2ccccc2s1)c1cc(-c2ccc(F)cc2)n2nc(-c3ccccc3)cc2n1,> 100,> 100
CC(=O)c1c2c(cc3c1CC1(C3)Cc3cc4c(c(C(=O)O)c3C1)CCC4)CCC2 (stereo not drawn),> 100,–
C/C(=N/O)c1ccc(Nc2cc(-n3ccnc3)c3ccccc3n2)cc1,> 100,48
Cc1ccc(/C=N/NS(=O)(=O)c2ccccc2)c(C)c1,> 100,–
C#CCOCn1cnc2ncnc(N)c21,> 100,–
Cc1noc(/N=C2\C=C(Nc3onc(C)c3C)C(=O)c3ccccc32)c1C,> 100,–

# Test system: OVCAR-4 ovarian
# Experiment: DTP human tumour cell line panel, 48 h
Compound,TGI [µM],GI50 [µM]
CC1=C(N2CC2)C(=O)c2ccccc2C1=O,7.36,–
CC(N1CCOCC1)C(O)(c1ccccc1)c1ccccn1 (stereo not drawn),> 100,–
O=S1(=O)c2ccccc2N=C(c2ccccc2Cl)CC1c1ccc(F)cc1 (stereo not drawn),32.8,–
CCN(CC)Cc1cc(Nc2c3ccccc3nc3cc(Cl)ccc23)ccc1O,2.43,1.18
CC1=CC(=O)NP(=O)(C23CC4CC(CC(C4)C2)C3)N1 (stereo not drawn),> 100,–
O=c1[nH]cc(C(F)(C(F)(F)F)C(F)(F)F)c(=O)[nH]1,> 100,–
COc1ccc2c(c1)c1c3n2CCNN=C3CCC1,> 100,–
CC(=O)[C-](C(C)=O)c1ccccc1.CC(=O)[C-](C(C)=O)c1ccccc1.CC(=O)[C-](C(C)=O)c1ccccc1.[Cl-].[Zr+4],> 100,> 100
O=C(O)CCc1nc(-c2ccccc2-n2cccc2)no1,> 100,–
Cc1cc(Nc2nc(-c3ccncc3)nc3ccccc23)n[nH]1,> 100,15.5
COC(=O)C(=O)C(C(=O)C(=O)Nc1cc(Cl)c(Cl)cc1Cl)c1nc2ccc([N+](=O)[O-])cc2[nH]c1=O (stereo not drawn),> 100,–
COc1ccc(NC(=O)C2C(=O)N(c3ccc(OC)cc3)C(=O)/C2=N\NC(N)=O)cc1 (stereo not drawn),94.3,–
C/C(=N\NS(=O)(=O)c1ccc([N+](=O)[O-])cc1)c1ccc[n+]([O-])n1,5.69,–
S=c1c2ccccc2c(=S)n2n1CC=CC2,> 100,–
CC(C)(C)Sc1nnc(SC(C)(C)C)c2c(=O)[nH]nc(SC(C)(C)C)c12,10.5,–
COc1cc2c(cc1OCCCOc1ccc(-c3nc4ccc(N5CCN(C)CC5)cc4[nH]3)cc1)N=C[C@@H]1CCCN1C2=O,17.2,< 0.01
CCCCNC1=C(C(=O)OCC)/C(=N/NC(=O)c2ccccc2O)CO1,> 100,–
N#CC(C(=O)CCCC(=O)Nc1ccc(Cl)cc1Cl)c1ccc(Cl)cc1 (stereo not drawn),> 100,–
O=CCCCC(Sc1ccccc1)Sc1ccccc1,45.6,–
Cc1ccc2nc(NC(=O)C(=O)CC(=O)c3cccc4ccccc34)sc2c1,32.1,–
Nc1c(C(=O)Nc2cccc3ccccc23)sc2nc3c(cc12)C(=O)CCC3,> 51.7,2.77
O=C1CCC(=O)c2sccc2N1,> 100,–
O=C(c1ccc2ccccc2c1)c1c(C(F)(F)F)n([O-])c2ccc(F)cc2[n+]1=O,3.22,1.67
COc1cccc2c1cc1c3c(cc4c(c32)OCO4)C(=O)N1,7.26,2.61
CC(C(N)=O)N(C)C(=O)c1cnc2ccccc2c1 (stereo not drawn),> 100,–
CCCCCCCCCCCCCCCCCC(=O)NCC(COP(=O)(O)O)OCC (stereo not drawn),> 100,–
CCCOC(=O)C1C2CCC(O2)C1C(=O)O (stereo not drawn),> 100,–
COc1ccc2c(c1)/C(=N/OC(C)=O)c1c-2cnc2ccccc12,83.6,31.7
